Measured values taken from patent US20250296939A1, “BENZOTHIOPHENE COMPOUND” (Kyoto Pharmaceutical Industries, Ltd., priority 2022, published 2025).

Columns and labels:
[1] = target: GST-fused human Keap1 (amino acid residues: 325-642) protein (Homo sapiens (Human), UniProt Q14145); assay: FP assay (in vitro): inhibition of binding between Nrf2 and Keap1 by fluorescence polarization; conditions: 20 nM GST-fused human Keap1, 10 nM FITC-labeled Nrf2 peptide, 2 hr at room temperature
Procedure: Experimental Example 1: FP Assay (In Vitro)
The inhibitory activity of test compounds on the binding between Nrf2 and Keap1 was determined by fluorescence polarization. A solution of 50 mM Tris-HCl pH.8.0 (NACALAI, REF: 06938-15), and 5 mM DTT (SIGMA-ALDRICH, REF: 646563-10X.5 mL) was used as a buffer solution. 8 μL of a buffer solution containing 40 nM GST-fused human Keap1 (amino acid residues: 325-642) protein (Protein tech, REF: Ag0779) was taken in a black 384-well plate (final concentration 20 nM), and 4 μL of the test compound solution prepared to each concentration in buffer solution was added thereto. A well containing a portion of the buffer solution without Keap1 was placed as a negative control. A well with no compound was used as a positive control. 40 nM of FITC-labeled Nrf2 peptide (FITC-X-LQLDEETGEFLPIQ (X=ε-Acp), Peptide Institute Inc.) was added thereto (10 nM final concentration). The wells were incubated at room temperature for 2 hr, and then fluorescence polarization was measured with a plate reader SPECTRAMAX Paradigm (Molecular devices) at excitation wavelength of 485 nm and fluorescence wavelength of 535 nm. The fluorescence polarization of the negative control was set to 100% inhibition and that of the positive control to 0% inhibition, and the inhibitory rate upon addition of the test compound was calculated using the following formula.

[2] = test system: NQO1 activity in Hepa1c1c7 cells; assay: NAD(P)H: quinone oxidoreductase-1 (NQO1) enzyme induction assay (in vitro); assay type: cell-based, mouse; conditions: Mus musculus, Hepa-1c1c7, NQO1 activity upon addition of 400 nM of test compound, about 48 hr, ratio from the base without the compound
Procedure: Experimental Example 2: NAD(P)H: Quinone Oxidoreductase-1 (NQO1) Enzyme Induction Assay (In Vitro)
The NQO1 assay was performed based on a previous report (Methods in Enzymology 2004; 382: 243-258). Hepa1c1c7 cells (mouse hepatocyte cell line, ATCC, cat. no. CRL-2026) were cultured in D-MEM medium containing 10% FBS and 1% penicillin/streptomycin (5% CO2, 37° C.), and seeded into 96-well plates (Corning REF. 353072) at 1×10^4 cells/well. A portion of the wells were prepared with medium only for background measurement without seeding cells. The next day, 400 nM of the test compound (0.004% of the final concentration in DMSO) dissolved in DMSO was added thereto, and the wells were incubated for about 48 hr. A well without adding the test compound was prepared for base activity assay in part.
Cell lysate (solution containing 0.8% digitonin, 2 mM EDTA), reaction solution (solution containing 25 mM Tris-HCl, 0.07% albumin, 0.01% Tween-20, 2 U/mL glucose-6-phosphate dehydrogenase, 5 μM flavin adenine dinucleotide, 1 μM glucose-6-phosphate, 30 μM nicotinamide adenine dinucleotide phosphate, 0.03% 3-(4,5-dimethyl-2-thiazolyl)-2,5-diphenyltetrazolium bromide (MTT), and 50 μM menadione), stop solution (solution containing 0.3 mM dicoumarol and 5 mM potassium dihydrogen phosphate, pH 7.4) were prepared. After the medium was removed, 50 μL of the cell lysate was added and incubated at 37° C. for 10 minutes, followed by shaking at room temperature for 10 minutes. 200 μL of reaction solution was added thereto, and allowed to stand for 5 minutes at room temperature. 50 μL of the stop solution was added thereto, and absorbance was measured at 610 nm on a SpectraMax PLUS384 (Molecular devices) or POWERSCAN HT (DS Pharma Biomedical). The test results were analyzed in Excel, and the NQO1 activity upon addition of 400 nM of test compound was calculated as a ratio from the base without the compound.
The results of each test compound in this test are shown in the following Table 2 (A: 5<NQO1 activity ratio, B: 3<NQO1 activity ratio 5, C: 1.5<NQO1 activity ratio 3).

Chain of GST-fused human Keap1 (amino acid residues: 325-642) protein (Q14145 325-624 limits assumed): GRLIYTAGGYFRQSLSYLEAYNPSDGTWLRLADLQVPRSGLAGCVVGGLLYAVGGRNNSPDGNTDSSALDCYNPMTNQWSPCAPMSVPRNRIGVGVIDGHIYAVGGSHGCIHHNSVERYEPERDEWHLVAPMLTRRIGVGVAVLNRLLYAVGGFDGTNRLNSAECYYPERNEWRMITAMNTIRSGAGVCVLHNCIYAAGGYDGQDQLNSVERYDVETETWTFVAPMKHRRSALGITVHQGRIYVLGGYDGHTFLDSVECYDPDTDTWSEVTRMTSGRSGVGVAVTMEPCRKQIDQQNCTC

For `CC[C@@H]1CN(Cc2cc([C@@H](CC(=O)O)c3ccc4c(nnn4C)c3C)cc3ccsc23)Cc2nc(O)ccc2O1` [Example 2, (3R)-3-(1,4-Dimethyl-1H-benzotriazol-5-yl)-3-(7-{[(2R)-2-ethyl-7-hydroxy-2,3-dihydropyrido[2,3-f][1,4]oxazepin-4(5H)-yl]methyl}-1-benzothiophen-5-yl)propanoic acid], the IC50 [1] was 0.03 to 0.3 µM and the fold induction at 0.4 µM [2] was > 5.
`Cc1c([C@@H](CC(=O)O)c2cc(CN3Cc4nc(O)ccc4OC4(CC4)C3)c3sccc3c2)ccc2c1nnn2C` [Example 3, (3S)-3-(1,4-Dimethyl-1H-benzotriazol-5-yl)-3-{7-[(7′-hydroxy-3′H-spiro[cyclopropane-1,2′-pyrido[2,3-f][1,4]oxazepin]-4′(5′H)-yl)methyl]-1-benzothiophen-5-yl}propanoic acid] was tested, and the IC50 [1] was 0.01 to 0.03 µM and the fold induction at 0.4 µM [2] was > 5.
`Cc1c([C@H](CC(=O)O)c2cc(CN3Cc4nc(O)ccc4OC4(CC4)C3)c3sccc3c2)ccc2c1nnn2C` [Example 4, (3R)-3-(1,4-Dimethyl-1H-benzotriazol-5-yl)-3-{7-[(7′-hydroxy-3′H-spiro[cyclopropane-1,2′-pyrido[2,3-f][1,4]oxazepin]-4′ (5′H)-yl)methyl]-1-benzothiophen-5-yl}propanoic acid] was tested, and the IC50 [1] was 0.01 to 0.03 µM and the fold induction at 0.4 µM [2] was > 5.
For `Cc1c([C@@H](CC(=O)O)c2cc(CN3Cc4nc(O)ccc4O[C@H](C4CC4)C3)c3sccc3c2)ccc2c1nnn2C` [Example 6, (3S)-3-(7-{[(2R)-2-Cyclopropyl-7-hydroxy-2,3-dihydropyrido[2,3-f][1,4]oxazepin-4(5H)-yl]methyl}-1-benzothiophen-5-yl)-3-(1,4-dimethyl-1H-benzotriazol-5-yl)propanoic acid], the IC50 [1] was 0.01 to 0.03 µM and the fold induction at 0.4 µM [2] was > 5.
For `Cc1c([C@@H](CC(=O)O)c2cc(CN3Cc4nc(O)ccc4O[C@@H](C4CC4)C3)c3sccc3c2)ccc2c1nnn2C` [Example 7, (3S)-3-(7-{[(2S)-2-Cyclopropyl-7-hydroxy-2,3-dihydropyrido[2,3-f][1,4]oxazepin-4(5H)-yl]methyl}-1-benzothiophen-5-yl)-3-(1,4-dimethyl-1H-benzotriazol-5-yl)propanoic acid], the IC50 [1] was 0.03 to 0.3 µM and the fold induction at 0.4 µM [2] was > 5.
`Cc1c([C@H](CC(=O)O)c2cc(CN3Cc4nc(O)ccc4O[C@@H](C4CC4)C3)c3sccc3c2)ccc2c1nnn2C` [Example 8, (3R)-3-(7-{[(2S)-2-Cyclopropyl-7-hydroxy-2,3-dihydropyrido[2,3-f][1,4]oxazepin-4(5H)-yl]methyl}-1-benzothiophen-5-yl)-3-(1,4-dimethyl-1H-benzotriazol-5-yl)propanoic acid] gave an IC50 [1] of 0.03 to 0.3 µM and a fold induction at 0.4 µM [2] of 3 to 5.
With `Cc1c([C@@H](CC(=O)O)c2cc(CN3Cc4nc(O)ccc4O[C@H](C4CC4)C3)c3sccc3c2)cnc2c1nnn2C` [Example 9, (3S)-3-(7-{[(2R)-2-Cyclopropyl-7-hydroxy-2,3-dihydropyrido[2,3-f][1,4]oxazepin-4(5H)-yl]methyl}-1-benzothiophen-5-yl)-3-(3,7-dimethyl-3H-[1,2,3]triazolo[4,5-b]pyridin-6-yl)propanoic acid] the IC50 [1] was 0.03 to 0.3 µM and the fold induction at 0.4 µM [2] was > 5.
With `Cc1c([C@H](CC(=O)O)c2cc(CN3Cc4nc(O)ccc4O[C@H](C4CC4)C3)c3sccc3c2)cnc2c1nnn2C` [Example 10, (3R)-3-(7-{[(2R)-2-Cyclopropyl-7-hydroxy-2,3-dihydropyrido[2,3-f][1,4]oxazepin-4(5H)-yl]methyl}-1-benzothiophen-5-yl)-3-(3,7-dimethyl-3H-[1,2,3]triazolo[4,5-b]pyridin-6-yl)propanoic acid] the IC50 [1] was 0.01 to 0.03 µM and the fold induction at 0.4 µM [2] was > 5.
With `Cc1c([C@H](c2cc(CN3Cc4nc(O)ccc4O[C@H](C4CC4)C3)c3sccc3c2)C(C)(C)C(=O)O)ccc2c1nnn2C` [Example 14, (3S)-3-(7-{[(2R)-2-Cyclopropyl-7-hydroxy-2,3-dihydropyrido[2,3-f][1,4]oxazepin-4(5H)-yl]methyl}-1-benzothiophen-5-yl)-3-(1,4-dimethyl-1H-benzotriazol-5-yl)-2,2-dimethylpropanoic acid] the IC50 [1] was ≤ 0.01 µM and the fold induction at 0.4 µM [2] was > 5.
With `Cc1c([C@@H](CC(=O)O)c2cc(CN3Cc4nc(O)ccc4O[C@H](C)C3)c3sccc3c2)ccc2c1nnn2C` [Example 15, (3S)-3-(1,4-Dimethyl-1H-benzotriazol-5-yl)-3-(7-{[(2R)-7-hydroxy-2-methyl-2,3-dihydropyrido[2,3-f][1,4]oxazepin-4(5H)-yl]methyl}-1-benzothiophen-5-yl)propanoic acid] the IC50 [1] was 0.01 to 0.03 µM and the fold induction at 0.4 µM [2] was > 5.
`Cc1c([C@H](CC(=O)O)c2cc(CN3Cc4nc(O)ccc4O[C@H](C)C3)c3sccc3c2)ccc2c1nnn2C` [Example 16, (3R)-3-(1,4-Dimethyl-1H-benzotriazol-5-yl)-3-(7-{[(2R)-7-hydroxy-2-methyl-2,3-dihydropyrido[2,3-f][1,4]oxazepin-4(5H)-yl]methyl}-1-benzothiophen-5-yl)propanoic acid] was tested, and the IC50 [1] was 0.03 to 0.3 µM and the fold induction at 0.4 µM [2] was > 5.
For `CC[C@@H]1CN(Cc2cc([C@H](CC(=O)O)c3cc(C)c4c(nnn4C)c3C)cc3ccsc23)Cc2nc(O)ccc2O1` [Example 17, (3S)-3-(7-{[(2R)-2-Ethyl-7-hydroxy-2,3-dihydropyrido[2,3-f][1,4]oxazepin-4(5H)-yl]methyl}-1-benzothiophen-5-yl)-3-(1,4,7-trimethyl-1H-benzotriazol-5-yl)propanoic acid], the IC50 [1] was 0.03 to 0.3 µM and the fold induction at 0.4 µM [2] was > 5.
In the case of `CC[C@@H]1CN(Cc2cc([C@@H](CC(=O)O)c3cc(C)c4c(nnn4C)c3C)cc3ccsc23)Cc2nc(O)ccc2O1` [Example 18, (3R)-3-(7-{[(2R)-2-Ethyl-7-hydroxy-2,3-dihydropyrido[2,3-f][1,4]oxazepin-4(5H)-yl]methyl}-1-benzothiophen-5-yl)-3-(1,4,7-trimethyl-1H-benzotriazol-5-yl)propanoic acid], the IC50 [1] is reported as 0.03 to 0.3 µM and the fold induction at 0.4 µM [2] is reported as > 5.
In the case of `CC[C@@H]1CN(Cc2cc([C@@H](CC(=O)O)c3ccc4c(nnn4CC(C)(C)O)c3C)cc3ccsc23)Cc2nc(O)ccc2O1` [Example 19, (3R)-3-(7-{[(2R)-2-Ethyl-7-hydroxy-2,3-dihydropyrido[2,3-f][1,4]oxazepin-4(5H)-yl]methyl}-1-benzothiophen-5-yl)-3-[1-(2-hydroxy-2-methylpropyl)-4-methyl-1H-benzotriazol-5-yl]propanoic acid], the IC50 [1] is reported as 0.03 to 0.3 µM and the fold induction at 0.4 µM [2] is reported as 3 to 5.
`CC[C@@H]1CN(Cc2cc([C@H](CC(=O)O)c3ccc4c(nnn4CC(C)(C)O)c3C)cc3ccsc23)Cc2nc(O)ccc2O1` [Example 20, (3S)-3-(7-{[(2R)-2-Ethyl-7-hydroxy-2,3-dihydropyrido[2,3-f][1,4]oxazepin-4(5H)-yl]methyl}-1-benzothiophen-5-yl)-3-[1-(2-hydroxy-2-methylpropyl)-4-methyl-1H-benzotriazol-5-yl]propanoic acid] showed an IC50 [1] of 0.01 to 0.03 µM and a fold induction at 0.4 µM [2] of 3 to 5.
For `CC[C@@H]1CN(Cc2cc([C@@H](CC(=O)O)c3cc(OC)c4c(nnn4C)c3C)cc3ccsc23)Cc2nc(O)ccc2O1` [Example 21, (3R)-3-(7-{[(2R)-2-Ethyl-7-hydroxy-2,3-dihydropyrido[2,3-f][1,4]oxazepin-4(5H)-yl]methyl}-1-benzothiophen-5-yl)-3-(7-methoxy-1,4-dimethyl-1H-benzotriazol-5-yl)propanoic acid], the IC50 [1] was 0.01 to 0.03 µM and the fold induction at 0.4 µM [2] was > 5.
